From patent US9206128B2 (Constellation Pharmaceuticals, Inc., priority 2011, dated 2015)

Key:
Y641N EZH2 = Y641N EZH2 (Homo sapiens, UniProt Q15910, Y641N); test: Y641N EZH2 activity inhibition assay (as EZH2 assay, reconstituted H3K27Me2 oligonucleosomes as substrate); type: biochemical; conditions: Y641N EZH2 mutant enzyme
Experimental: (§1) EZH2 Assay: Assays were carried out by mixing rPRC2 together with biotinylated oligonucleosome substrates in the presence of the radio-labeled enzyme co-factor, S-adenosyl-L-methionine (^3H SAM) (Perkin Elmer) and monitoring the enzymatically mediated transfer of tritiated methyl groups from ^3H SAM to histone lysine residues. The amount of resulting tritiated methyl histone product was measured by first capturing the biotinylated oligonucleosomes in streptavidin (SAV) coated FlashPlates (Perkin Elmer), followed by a wash step to remove un-reacted ^3H SAM, and then counting on a TopCount NXT 384 well plate scintillation counter (Perkin Elmer). The final assay conditions for EZH2 were as follows: 50 mM Tris Buffer pH 8.5, 1 mM DTT, 69 μM Brij-35 detergent, 5.0 mM MgCl2, 0.1 mg/mL BSA, 0.2 μM ^3H SAM, 0.2 μM biotinylated oligonucleosomes, 3.6 μM H3K27me3 peptide and 2 nM EZH2.
(§2) A 12.5 μL volume of the HMT enzyme, H3K27me3 peptide and oligonucleosome substrate in assay buffer was added to each well of the assay plate using a Multidrop Combi (ThermoFisher). Compounds were pre-incubated with the enzyme for 20 min, followed by initiation of the methyltransferase reaction by addition of 12.5 μL of 3H SAM in assay buffer (final volume=25 μL). The final concentrations of compounds ranged from a top default concentration of 80 μM down to 0.16 μM in ten 2-fold dilution steps. Reactions were carried out for 60 minutes and quenched with 20 μL per well of 1.96 mM SAH, 50 mM Tris PH 8.5, 200 mM EDTA. Stopped reactions were transferred to SAV coated Flashplates (Perkin Elmer), incubated for 120 min, washed with a plate washer, and then read on the TopCount NXT (1.0 min/well) to measure the amount of methyl histone product formed during the reaction.

EZH2 = EZH2 (Homo sapiens, UniProt Q15910); test: EZH2 activity inhibition assay (rPRC2, 3H SAM, biotinylated oligonucleosomes, FlashPlate); type: biochemical; conditions: rPRC2, 2 nM EZH2, 0.2 μM 3H SAM, top concentration 80 μM
Sequence of EZH2 (Q15910 whole entry): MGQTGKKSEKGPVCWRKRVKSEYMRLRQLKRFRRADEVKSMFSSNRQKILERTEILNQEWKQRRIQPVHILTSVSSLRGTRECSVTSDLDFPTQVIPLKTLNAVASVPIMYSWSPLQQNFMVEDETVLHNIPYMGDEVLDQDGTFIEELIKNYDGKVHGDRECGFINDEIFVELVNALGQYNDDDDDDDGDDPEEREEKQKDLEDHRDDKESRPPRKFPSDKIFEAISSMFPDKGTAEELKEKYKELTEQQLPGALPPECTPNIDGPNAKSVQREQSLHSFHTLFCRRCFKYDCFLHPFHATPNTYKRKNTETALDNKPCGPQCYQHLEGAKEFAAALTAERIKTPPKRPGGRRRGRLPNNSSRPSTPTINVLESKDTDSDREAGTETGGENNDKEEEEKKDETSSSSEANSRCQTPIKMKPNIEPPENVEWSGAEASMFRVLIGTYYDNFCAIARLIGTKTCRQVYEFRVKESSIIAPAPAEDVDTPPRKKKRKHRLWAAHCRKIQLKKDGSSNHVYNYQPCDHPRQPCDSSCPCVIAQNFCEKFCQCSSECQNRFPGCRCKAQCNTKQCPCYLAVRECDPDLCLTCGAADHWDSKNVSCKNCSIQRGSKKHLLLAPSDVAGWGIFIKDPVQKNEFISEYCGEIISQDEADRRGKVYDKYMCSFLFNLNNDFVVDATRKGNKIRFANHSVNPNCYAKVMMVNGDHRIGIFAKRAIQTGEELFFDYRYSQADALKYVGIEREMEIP
Sequence of EZH2 (O75530 whole entry partner): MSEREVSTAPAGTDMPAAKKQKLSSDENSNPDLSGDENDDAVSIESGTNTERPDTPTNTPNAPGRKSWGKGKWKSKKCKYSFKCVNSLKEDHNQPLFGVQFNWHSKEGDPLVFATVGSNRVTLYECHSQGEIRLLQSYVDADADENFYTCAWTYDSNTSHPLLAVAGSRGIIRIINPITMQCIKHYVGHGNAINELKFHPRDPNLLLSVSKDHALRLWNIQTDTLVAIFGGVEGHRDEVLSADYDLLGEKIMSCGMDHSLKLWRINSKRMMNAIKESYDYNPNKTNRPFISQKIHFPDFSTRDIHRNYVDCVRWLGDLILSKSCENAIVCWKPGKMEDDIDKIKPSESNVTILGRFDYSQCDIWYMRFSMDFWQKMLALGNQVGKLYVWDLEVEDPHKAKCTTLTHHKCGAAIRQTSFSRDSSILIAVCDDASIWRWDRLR
Sequence of EZH2 (Q15022 whole entry partner): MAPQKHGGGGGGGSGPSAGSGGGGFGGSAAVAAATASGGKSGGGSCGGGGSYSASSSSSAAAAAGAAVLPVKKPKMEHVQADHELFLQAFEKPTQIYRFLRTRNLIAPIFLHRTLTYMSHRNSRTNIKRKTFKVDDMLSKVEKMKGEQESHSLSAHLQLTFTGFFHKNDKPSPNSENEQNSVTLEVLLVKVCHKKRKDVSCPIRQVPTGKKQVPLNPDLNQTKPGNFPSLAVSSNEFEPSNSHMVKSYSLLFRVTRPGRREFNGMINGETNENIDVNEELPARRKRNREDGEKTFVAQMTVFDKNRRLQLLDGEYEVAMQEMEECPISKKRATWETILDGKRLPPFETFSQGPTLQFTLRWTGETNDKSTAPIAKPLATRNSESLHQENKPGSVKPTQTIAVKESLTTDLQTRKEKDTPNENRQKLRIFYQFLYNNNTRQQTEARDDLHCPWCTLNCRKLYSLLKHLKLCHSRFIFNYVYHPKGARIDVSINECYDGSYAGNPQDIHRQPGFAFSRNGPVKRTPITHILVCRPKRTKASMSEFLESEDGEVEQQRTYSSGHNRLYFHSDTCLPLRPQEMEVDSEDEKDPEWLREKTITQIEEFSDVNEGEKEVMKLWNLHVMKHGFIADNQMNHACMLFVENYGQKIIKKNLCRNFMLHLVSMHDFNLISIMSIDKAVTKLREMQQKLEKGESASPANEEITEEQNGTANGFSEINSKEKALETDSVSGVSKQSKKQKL
Experimental: as §1, with “Elmer).” for “Elmer). The final assay conditions for EZH2 were as follows: 50 mM Tris Buffer pH 8.5, 1 mM DTT, 69 μM Brij-35 detergent, 5.0 mM MgCl2, 0.1 mg/mL BSA, 0.2 μM ^3H SAM, 0.2 μM biotinylated oligonucleosomes, 3.6 μM H3K27me3 peptide and 2 nM EZH2.”
as §2, with “The final concentrations of compounds ranged from a top default concentration of 80 μM down to 0.16 μM in ten 2-fold dilution steps. Reactions were carried out for 60 minutes and quenched with 20 μL per well of 1.96 mM SAH, 50 mM Tris PH 8.5, 200 mM EDTA.” left out

Sequence of Y641N EZH2 (Q15910 whole entry Y641N): as the sequence (Q15910 whole entry) above, with Y641N counted along it
Sequence of Y641N EZH2 (O75530 whole entry partner): as the sequence (O75530 whole entry partner) above
Sequence of Y641N EZH2 (Q15022 whole entry partner): as the sequence (Q15022 whole entry partner) above

Cc1cc(C)c(CNC(=O)c2cnc(Oc3ccccc3)nc2)c(=O)[nH]1 [Compound I-79, N-((2-hydroxy-4,6-dimethylpyridin-3-yl)methyl)-2-phenoxypyrimidine-5-carboxamide]
IC50 (Y641N EZH2): > 80 µM
IC50 (EZH2): 10 to 50 µM

Cc1cc(C)c(CNC(=O)c2ccc(CN3CCCCC3)cc2C)c(=O)[nH]1 [Compound I-80, N-((2-hydroxy-4,6-dimethylpyridin-3-yl)methyl)-2-methyl-4-(piperidin-1-ylmethyl)benzamide]
IC50 (Y641N EZH2): 10 to 50 µM
IC50 (EZH2): 1 to 10 µM

Cc1cc(C)c(CNC(=O)c2ccc(C(C)N3CCCCC3)cc2)c(=O)[nH]1 (stereo not shown) [Compound I-81]
IC50 (Y641N EZH2): 10 to 50 µM
IC50 (EZH2): 1 to 10 µM

Cc1cc(C)c(CNC(=O)c2ccc(C3CCOC3)cc2)c(=O)[nH]1 (stereo not shown) [Compound I-83, N-((2-hydroxy-4,6-dimethylpyridin-3-yl)methyl)-4-(tetrahydrofuran-3-yl)benzamide]
IC50 (Y641N EZH2): 1 to 10 µM
IC50 (EZH2): < 1 µM

Cc1cc(C)c(CNC(=O)c2ccc(C3CCCO3)cc2)c(=O)[nH]1 (stereo not shown) [Compound I-84, N-((2-hydroxy-4,6-dimethylpyridin-3-yl)methyl)-4-(tetrahydrofuran-2-yl)benzamide]
IC50 (Y641N EZH2): 10 to 50 µM
IC50 (EZH2): 1 to 10 µM

Cc1cc(C)c(CNC(=O)c2ccc(C(C)OC3CCCCC3)cc2)c(=O)[nH]1 (stereo not shown) [Compound I-85, 4-(1-(cyclohexyloxy)ethyl)-N-((2-hydroxy-4,6-dimethylpyridin-3-yl)methyl)benzamide]
IC50 (Y641N EZH2): 1 to 10 µM
IC50 (EZH2): < 1 µM

Cc1cc(C)c(CNC(=O)c2ccc(C3CCCC3)cc2)c(=O)[nH]1 [Compound I-86, 4-cyclopentyl-N-((2-hydroxy-4,6-dimethylpyridin-3-yl)methyl)benzamide]
IC50 (Y641N EZH2): 1 to 10 µM
IC50 (EZH2): < 1 µM

Cc1cc(C)c(CNC(=O)c2ccc(C(C)N3CCCCC3)cc2C)c(=O)[nH]1 (stereo not shown) [Compound I-87, N-((2-hydroxy-4,6-dimethylpyridin-3-yl)methyl)-2-methyl-4-(1-(piperidin-1-yl)ethyl)benzamide]
IC50 (Y641N EZH2): 1 to 10 µM
IC50 (EZH2): 1 to 10 µM

Cc1cc(C)c(CNC(=O)c2ccc(C(C)N3CCCCC3=O)cc2)c(=O)[nH]1 (stereo not shown) [Compound I-88, N-((2-hydroxy-4,6-dimethylpyridin-3-yl)methyl)-4-(1-(2-oxopiperidin-1-yl)ethyl)benzamide]
IC50 (Y641N EZH2): > 80 µM
IC50 (EZH2): 1 to 10 µM

Cc1cc(C)c(CNC(=O)c2ccc(CN3CCN(CCO)CC3)cc2)c(=O)[nH]1 [Compound I-89, N-((4,6-dimethyl-2-oxo-1,2-dihydropyridin-3-yl)methyl)-4-((4-(2-hydroxyethyl)piperazin-1-yl)methyl)benzamide]
IC50 (Y641N EZH2): > 80 µM
IC50 (EZH2): 1 to 10 µM

Cc1cc(C)c(CNC(=O)c2ccc(C(C)COc3ccccc3)cc2)c(O)n1 (stereo not shown) [Compound I-116, N-((2-hydroxy-4,6-dimethylpyridin-3-yl)methyl)-4-(1-phenoxypropan-2-yl)benzamide]
IC50 (Y641N EZH2): > 80 µM
IC50 (EZH2): < 1 µM

Cc1cc(C)c(CNC(=O)c2ccc(C(C)Oc3ccncn3)cc2)c(=O)[nH]1 (stereo not shown) [Compound I-155, N-((2-hydroxy-4,6-dimethylpyridin-3-yl)methyl)-4-(1-(pyrimidin-4-yloxy)ethyl)benzamide]
IC50 (Y641N EZH2): 1 to 10 µM
IC50 (EZH2): < 1 µM

Cc1c[nH]c(=O)c(CNC(=O)c2ccc(C(C)Oc3ccccc3)cc2)c1 (stereo not shown) [Compound I-156]
IC50 (Y641N EZH2): > 80 µM
IC50 (EZH2): > 80 µM

Cc1cc(CNC(=O)c2ccc(C(C)Oc3ccccc3)cc2)c(=O)[nH]c1C (stereo not shown) [Compound I-157]
IC50 (Y641N EZH2): > 80 µM
IC50 (EZH2): > 80 µM

Cc1cc(C)c(CNC(=O)c2ccc(Oc3ccccc3)nn2)c(=O)[nH]1 [Compound I-158]
IC50 (Y641N EZH2): > 80 µM
IC50 (EZH2): > 80 µM

Cc1cc(C)c(CNC(=O)c2ncc(Oc3ccccc3)cn2)c(=O)[nH]1 [Compound I-159]
IC50 (Y641N EZH2): > 80 µM
IC50 (EZH2): > 80 µM

Cc1cc(C)c(CNC(=O)c2ccc([C@@H](C)Oc3ccccc3C#N)cc2)c(=O)[nH]1 [Compound I-162]
IC50 (Y641N EZH2): > 80 µM
IC50 (EZH2): 1 to 10 µM

Cc1cc(C)c(CNC(=O)c2ccc([C@H](C)Oc3ccccc3C#N)cc2)c(=O)[nH]1 [Compound I-163]
IC50 (Y641N EZH2): < 1 µM
IC50 (EZH2): < 1 µM

Cc1cc(C)c(CNC(=O)c2ccc([C@@H](C)Oc3cccc(C#N)c3)cc2)c(=O)[nH]1 [Compound I-168]
IC50 (Y641N EZH2): > 80 µM
IC50 (EZH2): 1 to 10 µM

Cc1cc(C)c(CNC(=O)c2ccc([C@H](C)Oc3cccc(C#N)c3)cc2)c(=O)[nH]1 [Compound I-169]
IC50 (Y641N EZH2): < 1 µM
IC50 (EZH2): < 1 µM

O=C(NCc1ccc(-c2ccccc2)[nH]c1=O)c1ccc(Oc2ccccc2)cc1 [Compound I-170]
IC50 (Y641N EZH2): > 80 µM
IC50 (EZH2): > 80 µM

O=C(NCc1cc2c([nH]c1=O)CCC2)c1ccc(Oc2ccccc2)cc1 [Compound I-178, N-((2-oxo-2,5,6,7-tetrahydro-1H-cyclopenta[b]pyridin-3-yl)methyl)-4-phenoxybenzamide]
IC50 (Y641N EZH2): 10 to 50 µM
IC50 (EZH2): 10 to 50 µM

O=C(NCc1cc2c([nH]c1=O)CCCC2)c1ccc(Oc2ccccc2)cc1 [Compound I-179]
IC50 (Y641N EZH2): > 80 µM
IC50 (EZH2): > 50 µM

Cc1cc(C)c(CNC(=O)c2ccc(C(C)Oc3ccccc3)nn2)c(=O)[nH]1 (stereo not shown) [Compound I-182, N-((2-hydroxy-4,6-dimethylpyridin-3-yl)methyl)-6-(1-phenoxyethyl)pyridazine-3-carboxamide]
IC50 (Y641N EZH2): > 80 µM
IC50 (EZH2): 1 to 10 µM

Cc1cc(C)c(CNC(=O)c2ccc(C(CO)Oc3ccccc3)cc2)c(=O)[nH]1 (stereo not shown) [Compound I-183, 4-(2-hydroxy-1-phenoxyethyl)-N-((2-hydroxy-4,6-dimethylpyridin-3-yl)methyl)benzamide]
IC50 (Y641N EZH2): > 80 µM
IC50 (EZH2): 1 to 10 µM

Cc1cc(C)c(CNC(=O)c2ccc(C(C)OC3CCOC3)cc2)c(=O)[nH]1 (stereo not shown) [Compound I-184, N-((2-hydroxy-4,6-dimethylpyridin-3-yl)methyl)-4-(1-(tetrahydrofuran-3-yloxy)ethyl)benzamide]
IC50 (Y641N EZH2): 1 to 10 µM
IC50 (EZH2): < 1 µM

Cc1cc(C)c(CNC(=O)c2ccc(C(C)OC3CCOCC3)cc2)c(=O)[nH]1 (stereo not shown) [Compound I-192]
IC50 (Y641N EZH2): 1 to 10 µM
IC50 (EZH2): < 1 µM

COCC(Oc1ccccc1)c1ccc(C(=O)NCc2c(C)cc(C)[nH]c2=O)cc1 (stereo not shown) [Compound I-193]
IC50 (Y641N EZH2): > 80 µM
IC50 (EZH2): > 80 µM

CNc1cc(C)[nH]c(=O)c1CNC(=O)c1ccc(Oc2ccccc2)cc1 [Compound I-194, N-((2-hydroxy-6-methyl-4-(methylamino)pyridin-3-yl)methyl)-4-phenoxybenzamide]
IC50 (Y641N EZH2): > 80 µM
IC50 (EZH2): < 1 µM

COc1cc(C)[nH]c(=O)c1CNC(=O)c1ccc(Oc2ccccc2)cc1 [Compound I-195, N-((2-hydroxy-4-methoxy-6-methylpyridin-3-yl)methyl)-4-phenoxybenzamide]
IC50 (Y641N EZH2): 1 to 10 µM
IC50 (EZH2): < 1 µM

Cc1cc(N)c(CNC(=O)c2ccc(Oc3ccccc3)cc2)c(=O)[nH]1 [Compound I-196, N-((4-amino-2-hydroxy-6-methylpyridin-3-yl)methyl)-4-phenoxybenzamide]
IC50 (Y641N EZH2): > 80 µM
IC50 (EZH2): 1 to 10 µM

Cc1cc(C)c(CNC(=O)c2c(C)cn(C(C)c3ccccc3)c(=O)c2C)c(=O)[nH]1 (stereo not shown) [Compound I-200, N-((4,6-dimethyl-2-oxo-1,2-dihydropyridin-3-yl)methyl)-3,5-dimethyl-2-oxo-1-(1-phenylethyl)-1,2-dihydropyridine-4-carboxamide]
IC50 (Y641N EZH2): 1 to 10 µM
IC50 (EZH2): < 1 µM
